One data set deals with T1, BAG3 full-length (Homo sapiens, UniProt O95817).
T1 construct: both the full-length BAG3 protein and its BAG domain; purchased Novus Biologicals (Littleton, CO, USA)
Nature of the data set: SPR assay on BAG3 full-length protein. To be noted: Biacore T200, 0 to 100 µM, 25 °C, 1:1 interaction model, n.b. = no binding; for Kd: read-out: BAG3 FULL KD (µM) ± SD. The method, then:
(§1) In this study, we employed SPR experiments to evaluate the interactions between synthesized compounds (1–14) and both the full-length BAG3 protein and its BAG domain. Only the compounds that successfully bound to the full-length BAG3 protein were tested for their interaction with the BAG domain. Protein immobilization was achieved using the amide coupling method, and the compounds were tested at ten different concentrations, ranging from 0 to 100 µM. A known binder of BAG3-BD, LK4 ((Z)-ethyl 2-(5-(3,4-dihydroxybenzylidene)-2,4-dioxothiazolidin-3yl)acetate), was used as a positive control. […] Compound 14 also bound the target but with slightly higher KD values, still within the micromolar range. The three identified compounds were further investigated to understand whether this binding induced an effect on BAG3 protein functions. The KD values reported in Table 1 for the known inhibitor LK4 differ from those in previous studies due to the use of a newer-generation instrument for the SPR experiments. The earlier experiments utilized the Biacore 3000, whereas the current study employed the Biacore T200. While ligand binding was confirmed in both sets of experiments, the slightly different KD values are attributed to the enhanced sensitivity of the Biacore T200.
(§2) Recombinant human BAG3 protein (Bcl2-associated athanogene 3) was sourced from Novus Biologicals (Littleton, CO, USA), while the BAG3 domain (BAG3-BD) was procured from ARETA International S.r.l. (Gerenzano, Italy). We utilized (Z)-ethyl 2-(5-(3,4-dihydroxybenzylidene)-2,4-dioxothiazolidin-3-yl)acetate (LK4), a known BAG3 inhibitor previously identified by our group. Surface Plasmon Resonance (SPR) spectroscopy was employed to assess the affinity of synthesized molecules for BAG3 and BAG-BD using a Biacore T200 optical biosensor equipped with CM5 sensor chips (Cytiva, Marlborough, MA, USA). BAG3 and BAG-BD were immobilized on the CM5 sensor chip using standard amine-coupling protocols. BAG3 protein (0.067 μg/μL in 10 mM CH3COONa, pH 4.5) was immobilized at a flow rate of 10 μL/min, resulting in a density of 14 kRU. The BAG3 domain (0.38 μg/μL in 10 mM CH3COONa, pH 4.5) was immobilized under similar conditions, achieving a density of 4 kRU. For the experiments, BAG3 and BAG-BD surfaces, along with an unmodified reference surface, were prepared for simultaneous analyses.
Compounds 1–14 and LK4 were dissolved to 10 mM in 100% DMSO and then diluted 1:20 (v/v) in PBS-P buffer (0.2 M phosphate buffer, 27 mM KCl, 1.37 M NaCl, 0.5% surfactant P20) to achieve a final DMSO concentration of 5.0%. These compounds were injected in a concentration series (1:2 dilution, 10 different concentrations) ranging from 0 to 100 μM, prepared in 96-well plates. SPR experiments were conducted at 25 °C with a flow rate of 20 μL/min, featuring 90 s of association and 400 s of dissociation monitoring. Changes in mass, reflected as resonance units (RU), were recorded to determine binding responses. KD values were calculated using Biaevaluation software 3.2 by globally fitting the double-referenced association and dissociation data to a 1:1 interaction model. See Supplementary Materials for all the sensorgrams (Figures S43–S50).

A further data set has as its target T2, BAG3-BD (Homo sapiens, UniProt O95817).
T2 construct: the BAG3 domain (BAG3-BD) was procured from ARETA International S.r.l; purchased ARETA International S.r.l; (Gerenzano, Italy)
T2 sequence (O95817 421-498 limits assumed): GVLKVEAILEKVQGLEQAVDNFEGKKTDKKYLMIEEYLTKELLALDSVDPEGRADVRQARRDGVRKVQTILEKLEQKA
Nature of the data set: SPR assay on BAG domain of BAG3 (BAG3-BD). It is filed as binding. To be noted: Biacore T200, 0 to 100 µM, 25 °C, 1:1 interaction model, read-out: BAG DOMAIN KD (µM) ± SD. The method, then:
as §1
as §2, with “For the experiments, BAG3 and BAG-BD surfaces, along with an unmodified reference surface, were prepared for simultaneous analyses.” left out
Compounds 1–14 and LK4 were dissolved to 10 mM in 100% DMSO and then diluted 1:20 (v/v) in PBS-P buffer (0.2 M phosphate buffer, 27 mM KCl, 1.37 M NaCl, 0.5% surfactant P20) to achieve a final DMSO concentration of 5.0%. […] Changes in mass, reflected as resonance units (RU), were recorded to determine binding responses. KD values were calculated using Biaevaluation software 3.2 by globally fitting the double-referenced association and dissociation data to a 1:1 interaction model. […]
A general note: Surface plasmon resonance follows binding to a sensor surface in real time, without labels.

The next data set has as its system HeLa cells. Nature of the data set: MTT cell viability assay on HeLa cells. Particulars: 72 h. It is filed as cell-based. The procedure:
Elevated expression levels of BAG3 are strongly associated with signaling pathways in various types of malignant cells; consequently, reducing the activity of this co-chaperone inhibits cell proliferation, triggers apoptosis, and induces cell cycle arrest. To assess the activity of compounds 10, 12, and 14, cytotoxicity assays were performed on HeLa cells, which were chosen for their tendency to overexpress BAG3 proteins. MTT assays were conducted by exposing HeLa cells to different concentrations of the compounds (25, 50, and 100 µM) for 72 h. Additionally, 10% DMSO was used as a positive control, while 0.1% DMSO served as a negative control. […] The next step involved the assessment of the cytotoxicity of the most promising candidate, 10, on healthy cells to determine its safety profile. To achieve this, MTT assays were conducted on HaCat cells over 72 h.
Human cervical carcinoma cell lines (HeLa, kindly donated by Prof. Ornella Moltedo, Department of Pharmacy, University of Salerno) and immortalized human keratinocytes (HaCaT) were cultured in a DMEM/high glucose medium. This medium was supplemented with 10% FBS (v/v), 2 mM/L glutamine, 100 U/mL penicillin, and […] streptomycin. The cells were maintained at 37 °C in a humidified atmosphere with 5% CO2. To ensure logarithmic growth, the cells were sub-cultured every 2 days.
Cell viability was assessed by measuring mitochondrial metabolic activity using a colorimetric assay, which involves the reduction of 3-[4,5-dimethylthiazol-2,5-diphenyl-2H-tetrazolium bromide (MTT) to purple formazan. Stock solutions of compounds 10, 12, and 14 (50 mM in DMSO) were stored at −20 °C in the dark and diluted just before being added to the sterile culture medium. Briefly, HeLa cells (3.5 × 10^3 cells/well) were seeded in triplicate in 96-well plates, and after 24 h, to allow for attachment, the cells were treated with various concentrations of the tested compounds (25, 50 and 100 μM), 0.1% (v/v) DMSO as a negative control, and 10% (v/v) DMSO as a positive control for 72 h. Following treatment, 20 μL of MTT (5 mg/mL in PBS) was added to each well, and the cells were incubated for an additional 3 h at 37 °C. The formazan crystals formed were then dissolved in 100 μL of a buffer containing 50% (v/v) N, N-dimethylformamide and 20% SDS (pH 4.5). Absorbance was measured at 570 nm using a Multiskan™ GO Microplate Spectrophotometer (Thermo Fisher Scientific, Waltham, MA, USA,). […] The IC50 values, representing the concentration causing 50% inhibition of cell survival, were calculated and compared to control cells treated with DMSO using GraphPad Prism 8.0 software through nonlinear regression of dose–response inhibition. Only for compound 10 was the IC50 also assessed on HaCaT cells (5.0 × 10^3 cells/well) after 72 h of treatment.

Structures are written as SMILES.

T1 sequence (O95817 whole entry, the tested form may be a part): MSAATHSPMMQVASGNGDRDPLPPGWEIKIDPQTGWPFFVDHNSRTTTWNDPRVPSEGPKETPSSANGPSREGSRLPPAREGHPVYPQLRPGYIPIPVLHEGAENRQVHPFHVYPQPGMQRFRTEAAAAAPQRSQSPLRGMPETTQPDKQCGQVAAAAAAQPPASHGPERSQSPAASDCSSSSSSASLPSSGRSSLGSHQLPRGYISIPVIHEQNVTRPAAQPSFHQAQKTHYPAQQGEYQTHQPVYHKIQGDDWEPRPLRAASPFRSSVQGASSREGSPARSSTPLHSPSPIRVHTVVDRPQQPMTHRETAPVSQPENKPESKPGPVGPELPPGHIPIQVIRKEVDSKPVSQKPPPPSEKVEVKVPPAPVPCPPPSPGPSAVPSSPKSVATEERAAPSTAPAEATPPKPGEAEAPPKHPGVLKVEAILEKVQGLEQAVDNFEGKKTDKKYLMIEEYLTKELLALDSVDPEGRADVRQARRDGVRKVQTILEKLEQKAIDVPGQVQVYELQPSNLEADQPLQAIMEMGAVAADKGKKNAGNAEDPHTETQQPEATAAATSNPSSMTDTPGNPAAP

`CCCCNc1c(CC)nc2ccccn12` [Compound 4, N-butyl-2-ethylimidazo[1,2-a]pyridin-3-amine]: on BAG3 full-length, the “BAG3 FULL KD (µM) ± SD” value is “n.b”. Still for that read-out and setting: next, `COc1ccc(Nc2c(-c3cc(OC)ccc3F)nc3cc(C)ccn23)cc1` [Compound 13, 2-(2-fluoro-5-methoxyphenyl)-N-(4-methoxyphenyl)-7-methylimidazo[1,2-a]pyridin-3-amine]: “n.b”.

Regarding `COc1ccc(F)c(-c2nc3cc(C)ccn3c2NCc2ccccc2)c1` [Compound 14, N-benzyl-2-(2-fluoro-5-methoxyphenyl)-7-methylimidazo[1,2-a]pyridin-3-amine], the Kd at BAG3 full-length turned out to be 76.2 ± 5.44 µM; on BAG3-BD, 16.9 ± 5.87 µM. Moreover, the mortality result in the data set with HeLa cells (25 µM) is recorded as “lost its effect”. For the same compound, in the data set with HeLa cells (Homo sapiens), the mortality at 100 µM amounted to 50%. For the compound `CCc1ccc(-c2nc3cc(Br)ccn3c2Nc2ccc3ccccc3c2)cc1` [Compound 9, 7-bromo-2-(4-ethylphenyl)-N-(naphthalen-2-yl)imidazo[1,2-a]pyridin-3-amine], the “BAG3 FULL KD (µM) ± SD” value at BAG3 full-length is “n.b”.

As to `CCc1nc2ccc(Br)cn2c1NC1CCCCC1` [Compound 6, 6-bromo-N-cyclohexyl-2-ethylimidazo[1,2-a]pyridin-3-amine], the “BAG3 FULL KD (µM) ± SD” value at BAG3 full-length was “n.b”. Regarding `Clc1ccc2nc(-c3ccccc3Br)c(Nc3ccc4ccccc4c3)n2c1` [Compound 12, 2-(2-bromophenyl)-6-chloro-N-(naphthalen-2-yl)imidazo[1,2-a]pyridin-3-amine], the Kd on BAG3 full-length came to 20.7 ± 0.42 µM; on BAG3-BD it was 14.7 ± 2.69 µM. The compound further returned a mortality at 25 µM with HeLa cells (Homo sapiens, 25 µM) of 40%. Moreover, in the data set on HeLa cells (Homo sapiens), the mortality at 100 µM stood at 60%. In the data set on HeLa cells (Homo sapiens, seven concentrations (1 to 100 µM)), this compound yielded an IC50 of 38.9 ± 3.49 µM. As for `CCc1nc2ccccn2c1NC1CCCCC1` [Compound 2, N-cyclohexyl-2-ethylimidazo[1,2-a]pyridin-3-amine], the “BAG3 FULL KD (µM) ± SD” value at BAG3 full-length is reported as “n.b”. On the same count and under the same terms, next, `CCCCNc1c(-c2ccccc2)nc2ccccn12` [Compound 3, N-butyl-2-phenylimidazo[1,2-a]pyridin-3-amine]: “n.b”; `Brc1ccn2c(Nc3ccc4ccccc4c3)c(-c3ccccc3Br)nc2c1` [Compound 8, 7-bromo-2-(2-bromophenyl)-N-(naphthalen-2-yl)imidazo[1,2-a]pyridin-3-amine]: “n.b”. In the case of `Brc1ccc2nc(-c3ccccc3)c(NC3CCCCC3)n2c1` [Compound 5, 6-bromo-N-cyclohexyl-2-phenylimidazo[1,2-a]pyridin-3-amine], the “BAG3 FULL KD (µM) ± SD” value at BAG3 full-length was “n.b”. `CCOC(=O)CN1C(=O)S/C(=C\c2ccc(O)c(O)c2)C1=O` [LK4, (Z)-ethyl 2-(5-(3,4-dihydroxybenzylidene)-2,4-dioxothiazolidin-3yl)acetate, reference compound]: the Kd at BAG3 full-length stood at 19.9 ± 6.58 µM; on BAG3-BD, 0.18 ± 0.02 µM. With `c1ccc(-c2nc3ccccn3c2NC2CCCCC2)cc1` [Compound 1, N-cyclohexyl-2-phenylimidazo[1,2-a]pyridin-3-amine], the “BAG3 FULL KD (µM) ± SD” value at BAG3 full-length is listed as “n.b. ^a”. The same measure, in the same setting: next, `CCc1ccc(-c2nc3cc(Br)ccn3c2NC(C)C)cc1` [Compound 7, 7-bromo-2-(4-ethylphenyl)-N-isopropylimidazo[1,2-a]pyridin-3-amine]: “n.b”. Take `CCc1ccc(-c2nc3ccc(Cl)cn3c2NC(C)C)cc1` [Compound 11, 6-chloro-2-(4-ethylphenyl)-N-isopropylimidazo[1,2-a]pyridin-3-amine]: on BAG3 full-length, the “BAG3 FULL KD (µM) ± SD” value is reported as “n.b”.

Broadly, the Kd is a measure of binding affinity in units of concentration. As usually defined, the mortality is the share of the test organisms that died. What is called IC50 is the concentration that inhibits the measured activity by half. A low value points to greater potency in that assay.

Values taken from publication PMC11547576, “Identification of a New Promising BAG3 Modulator Featuring the Imidazopyridine Scaffold” (Molecules, 2024).
